Results reported in patent US20220306647A1, “NOVEL INDOLE-2-CARBOXAMIDES ACTIVE AGAINST THE HEPATITUS B VIRUS (HBV)” (AICURIS GMBH & CO. KG, priority 2019, published 2022).
pEC50, pIC50: −log10 of the molar value. Like-named read-outs stand apart in the source and are kept apart here.

What was measured:
[1] = molecular target: T1, HBV core protein (C-terminal truncated core protein, 149 amino acids of the N-terminal assembly domain, BODIPY-FL labelled) (UniProt P03146); experiment: Biochemical capsid assembly assay (fluorescence quenching)
T1 construct: fused on or other part: A single cysteine added after residue 149, at position 150; It carries the BODIPY-FL maleimide label
T1 sequence (P03146 whole entry, the tested form may be a part): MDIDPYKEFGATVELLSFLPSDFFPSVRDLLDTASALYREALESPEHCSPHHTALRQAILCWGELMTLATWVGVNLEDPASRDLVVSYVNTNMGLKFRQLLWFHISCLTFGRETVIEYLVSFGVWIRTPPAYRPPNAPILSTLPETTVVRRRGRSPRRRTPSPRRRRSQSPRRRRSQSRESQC
Summary of the method: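 Fluorescence quenching of BODIPY-FL-labelled core dimers (1.0 to 2.0 μM) in 50 mM HEPES pH 7.5; compounds at 8 concentrations, 0.5 log-unit dilutions from top 100, 31.6 or 10 μM, 0.5% DMSO. Assembly started with NaCl to […]; fluorescence (ex 477/em 525 nm) read after 6 min. EC50 by non-linear regression.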

HBV (HepAD38 cells) = experiment: HBV replication assay: determination of HBV DNA from the supernatants of HepAD38 cells; type: cell-based; conditions: Hepatitis B virus, 144 h, HBV DNA in HepAD38 supernatant at day 6, qPCR, read-out: Cell activity
Summary of the method: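 HepAD38 cells seeded without tetracycline and treated with half-log compound dilutions; tetracycline-treated wells serve as cell control. On day 6, supernatant HBV DNA was purified and quantified by real-time PCR against plasmid standards; EC50 from non-linear regression of relative copy numbers, three experiments in triplicate.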

[2] = assembly started with NaCl, fluorescence read after 6 min, read-out: Assembly activity

| SMILES | pIC50 [1, 2] | pEC50 (HBV (HepAD38 cells)) | pIC50 ([1]; read-out: Assembly activity, assembly started with NaCl, fluorescence read after 6 min) |
| --- | --- | --- | --- |
| CN1C(=O)c2c3c(nn2CC12CC2)CCN(C(=O)c1cc2c(Cl)cccc2[nH]1)C3 [Example 17, 12′-(4-chloro-1H-indole-2-carbonyl)-4′-methyl-4′,7′,8′,12′-tetraazaspiro[cyclopropane-1,5′-tricyclo[7.4.0.0^2′7]tridecane]-1′,8′-dien-3′-one] | > 5.30 | > 6.00 |  |
| CN(C(=O)c1cnn2c1CN(C(=O)c1cc3ccccc3[nH]1)CC2)C1(c2ccccc2C(=O)O)CC1 [Example 30, 2-{1-[N-methyl-5-(1H-indole-2-carbonyl)-4H,5H,6H,7H-pyrazolo[1,5-a]pyrazine-3-amido]cyclopropyl}benzoic acid] | > 5.30 | 5.00 to 6.00 |  |
| O=C(c1cc2ccccc2[nH]1)N1CCc2nn3c(c2C1)C(=O)N(CCO)C1(CC3)CC1 [Example 89, 13′-(2-hydroxyethyl)-4′-(1H-indole-2-carbonyl)-4′, 8′,9′,13′-tetraazaspiro[cyclopropane-1,12′-tricyclo[7.5.0.0^2,7]tetradecane]-1′,7′-dien-14′-one] | > 5.30 | > 6.00 |  |
| CN(C(=O)c1cnn2c1CN(C(=O)c1cc3cc(F)c(F)cc3[nH]1)CC2)C1(c2ccc(C(=O)O)cc2)CC1 [Example 77, 4-{1-[N-methyl-5-(5,6-difluoro-1H-indole-2-carbonyl)-4H,5H,6H,7H-pyrazolo[1,5-a]pyrazine-3-amido]cyclopropyl}benzoic acid] | > 5.30 | > 6.00 |  |
| Cc1cccc2[nH]c(C(=O)N3CCc4nn5c(c4C3)C(=O)N(C)C3(CC3)C5)cc12 [Example 16, 4′-methyl-12′-(4-methyl-1H-indole-2-carbonyl)-4′,7′,8′,12′-tetraazaspiro[cyclopropane-1,5′-tricyclo[7.4.0.0^2′7]tridecane]-1′,8′-dien-3′-one] | > 5.30 | > 6.00 |  |
| CN1C(=O)c2c3c(nn2CC12CC2)CCN(C(=O)c1cc2c(Cl)c(F)ccc2[nH]1)C3 [Example 87, 12′-(4-chloro-5-fluoro-1H-indole-2-carbonyl)-4′-methyl-4′,7′,8′,12′-tetraazaspiro[cyclopropane-1,5′-tricyclo[7.4.0.0^2,7]tridecane]-1′,8′-dien-3′-one] |  | > 6.00 | > 5.30 |
| CN1C(=O)c2c3c(nn2CC12CC2)CCN(C(=O)c1cc2cc(F)c(Cl)cc2[nH]1)C3 [Example 15, 12′-(6-chloro-5-fluoro-1H-indole-2-carbonyl)-4′-methyl-4′,7′,8′,12′-tetraazaspirol[cyclopropane-1,5′-tricyclo[7.4.0.0^2′7]tridecane]-1′,8′-dien-3′-one] | > 5.30 | > 6.00 |  |
| CN(C(=O)c1noc2c1CN(C(=O)c1cc3ccccc3[nH]1)CC2)C1(c2ncc(C(=O)O)cn2)CC1 [Example 98, 2-{1-[N-methyl-5-(1H-indole-2-carbonyl)-4H,5H,6H,7H-[1,2]oxazolo[4,5-c]pyridine-3-amido]cyclopropyl}pyrimidine-5-carboxylic acid] | > 5.30 | 5.00 to 6.00 |  |
| Cc1cc(F)cc2[nH]c(C(=O)N3CCn4ncc(C(=O)N(C)C5(c6ccc(C(=O)O)cc6)CC5)c4C3)cc12 [Example 54, 4-{1-[N-methyl-5-(6-fluoro-4-methyl-1H-indole-2-carbonyl)-4H,5H,6H,7H-pyrazolo[1,5-a]pyrazine-3-amido]cyclopropyl}benzoic acid] | > 5.30 | > 6.00 |  |
| CCc1cccc2[nH]c(C(=O)N3CCn4ncc(C(=O)N(C)C5(c6ccc(C(=O)O)cc6)CC5)c4C3)cc12 [Example 83, 4-{1-[N-methyl-5-(4-ethyl-1H-indole-2-carbonyl)-4H,5H,6H,7H-pyrazolo[1,5-a]pyrazine-3-amido]cyclopropyl}benzoic acid] | > 5.30 | > 6.00 |  |
| CN(Cc1ccccc1C(=O)O)C(=O)c1[nH]nc2c1CN(C(=O)c1cc3ccccc3[nH]1)CC2 [Example 24, 2-({1-[5-(1H-indole-2-carbonyl)-2H,4H,5H,6H,7H-pyrazolo[4,3-c]pyridin-3-yl]-N-methylformamido}methyl)benzoic acid] | > 5.30 | 5.00 to 6.00 |  |
